Assay results from US12529022B2, “Human organ-on-chip models for predictive screening” (The Trustees of Columbia University in the City of New York, priority 2018, dated 2026).
Counter-ions that a name gives are not always drawn.

Assays:
human cardiac OOC [1] = tested on: human cardiac OOC
Description: (§2) The pillars subjected the hydrogel to mechanical loading designed to mimic that in the native heart. The hydrogel compaction caused passive tension in the tissues as they're stretched and aligned between the pillars. Synchronous contractions forced the tissues to work against the pillars. […] Cardiac model development: Cardiac tissues were formed by cell encapsulation in fibrin hydrogel. Human iPS cell-derived cardiomyocytes at day 16 of differentiation were combined with normal human dermal fibroblasts (NHDF; Lonza) at a ratio of 75% hiPSC-CMs and 25% NHDF, for a total of 1 million cells per tissue. The hydrogel was formed by mixing 33 mg/mL of fibrinogen from human plasma (Sigma-Aldrich) with 25 U/mL of thrombin from human plasma (Sigma-Aldrich), on a 84:16 ratio. The hydrogel mixed with the cells was dispensed into each well of the tissues formation reservoir and allowed to polymerize at 37° C. for 15 min before adding RPMI Medium 1640 supplemented with B-27™ containing 0.2 mg/ml aprotinin (Sigma-Aldrich). Subsequently, medium was changed every other day supplemented with 0.2 mg/ml aprotinin for the first 7 days. After 7 days, tissues were used in experiments. […] Contractility videos: Tissue contractility was measured by tracking the change in tissue area as a function of time. […] Absolute differences in cell area from the baseline frame were then calculated to create a time course of cell area dynamics as a function of time. The resulting time courses were analysed using a native MATLAB (MATHWorks) automated peak finding algorithm to determine locations of maximum cell contraction indicated by the locations of local maxima in the time courses. Beat period lengths were determined from the length of time between the pairs of local maxima. Beat frequencies were determined by inverting beat periods; relaxation times were measured from the length of time required for the tissue to relax from the peak contraction amplitude of the local maxima to the calculated relaxation amplitude.

skin tissues = assay: Doxorubicin study: skin barrier transport and TEER; format: cell-based, human; conditions: 30 μM, 72 hours, isolated and integrated comparable
Description: (§1) Common tissue responses were measured for each tissue individually, 72 hours after their assembly into the integrated platform and exposure to 30 μM concentration of doxorubicin introduced into the circulatory perfusion. FIG. 61 illustrates the Doxorubicin (Dox) drug study design including four conditions tests (integrated control, integrated Dox, isolated control, isolated Dox).

cardiac compartment = assay: Doxorubicin study: cardiac compartment function; format: cell-based, human; conditions: 30 μM, 72 hours
Bone tissues = assay: Doxorubicin study: bone remodeling and histology; conditions: 30 μM, 72 hours
Description: as §1

all tissue types = assay: Doxorubicin study in integrated multi-tissue platform: common toxicity readouts; format: cell-based, human; conditions: 72 hours after 30 μM dose
Liver tissues = assay: Doxorubicin study: liver functionality; format: cell-based, human; conditions: 30 μM, 72 hours, only in the integrated experimental groups
Description: as §1

human cardiac OOC [2] = assay: cells; conditions: read-out: EC50 of increase in beat frequency
Description: as §2

CCCCc1oc2ccccc2c1C(=O)c1cc(I)c(OCCN(CC)CC)c(I)c1 [amiodarone, amiodarone hydrochloride]
beating frequency (human cardiac OOC [1]; amiodarone 2.42 μM (FIG. 50 legend prints 2.42 M), over 48 hours): beating frequency decreased

Cn1c(=O)c2c(ncn2C)n(C)c1=O [caffeine]
beat frequency (human cardiac OOC [1]; caffeine 50 mM): increase in beat frequency

COc1cccc2c1C(=O)c1c(O)c3c(c(O)c1C2=O)C[C@@](O)(C(=O)CO)C[C@@H]3O[C@H]1C[C@H](N)[C@H](O)[C@H](C)O1 [doxorubicin, doxorubicin hydrochloride]
electrical resistance (TEER) of skin (skin tissues): electrical resistance decreased
contractile and conductive behavior (cardiac compartment): decreased contractile and conductive behavior
release of troponin (cardiac compartment): increased release of troponin
TRAP activity (bone remodeling) (Bone tissues): stable TRAP responses
cell viability (all tissue types): significant decreases
glucose consumption (all tissue types): significant decreases
mitochondrial activity (all tissue types): significant decreases
albumin production (Liver tissues): decreased albumin
urea production (Liver tissues): unaffected urea production

CC(C)NCC(O)c1ccc(O)c(O)c1 (stereo not drawn) [isoproterenol, isoproterenol hydrochloride]
EC50 (human cardiac OOC [2]): 30 nM
